Test results as given in the supplement of paper PMC10307832.

Tests used:
Assay in all cases: relative viability (nuclei count vs DMSO), 5 days (fraction); higher = more cells survive
MLN4924 = compound: NS(=O)(=O)OC[C@@H]1C[C@@H](n2ccc3c(N[C@H]4CCc5ccccc54)ncnc32)C[C@@H]1O [MLN4924]
In short: (§1)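 Vehicle-anchored 1536-well plates of lung cancer cell lines, held overnight at 37 °C, were pinned with five library-drug doses (not always all listed) spaced by √10. No medium change followed over the next 5 days, after which the cells were fixed, permeabilised and Hoechst-stained together and imaged at 4×. Nuclei were counted with MetaXpress, and viability is treated-well nuclei over vehicle-well nuclei, taken as a median across plates. Plates passed with control CV below 25% and at least one doubling.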

Carboplatin = compound: C1CC(C1)(C(=O)O)C(=O)O.[NH2-].[NH2-].[Pt+2] [Carboplatin]
In short: as §1

GSK126 = compound: CC[C@H](C)N1C=C(C2=C(C=C(C=C21)C3=CN=C(C=C3)N4CCNCC4)C(=O)NCC5=C(C=C(NC5=O)C)C)C [GSK126]
In short: as §1

Carboplatin + Trametinib = compound: C1CC(C1)(C(=O)O)C(=O)O.[NH2-].[NH2-].[Pt+2] [Carboplatin] + CC(=O)Nc1cccc(-n2c(=O)n(C3CC3)c(=O)c3c(Nc4ccc(I)cc4F)n(C)c(=O)c(C)c32)c1 [Trametinib] (partner 0.02 µM)
In short: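 Nuclei were stained with Hoechst during a one-step fixation (final 0.05% Triton X-100, 1% formaldehyde, 1 ug/ml Hoechst) carried out 5 days after dosing, then counted on 4× images. The cells, lung cancer lines in 1536-well plates, had been dosed by pin tool the day after seeding with one drug alone or a fixed anchor-drug dose plus five library-drug doses (not always all listed) in √10 steps. Relative viability is the nuclei count in treated wells divided by that in vehicle wells, and each value is the median of duplicate plates.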

Row | Cell Line | relative viability (MLN4924; 0.04 µM) | relative viability (MLN4924; 0.1265 µM) | relative viability (MLN4924; 0.4 µM) | relative viability (MLN4924; 1.265 µM) | relative viability (MLN4924; 4 µM) | relative viability (Carboplatin; 0.08 µM) | relative viability (Carboplatin; 0.253 µM) | relative viability (Carboplatin; 0.8 µM) | relative viability (Carboplatin; 2.53 µM) | relative viability (Carboplatin; 8 µM) | relative viability (GSK126; 0.08 µM) | relative viability (GSK126; 0.253 µM) | relative viability (GSK126; 0.8 µM) | relative viability (GSK126; 2.53 µM) | relative viability (GSK126; 8 µM) | relative viability (Carboplatin + Trametinib; first compound 0.08 µM) | relative viability (Carboplatin + Trametinib; first compound 0.253 µM) | relative viability (Carboplatin + Trametinib; first compound 0.8 µM) | relative viability (Carboplatin + Trametinib; first compound 2.53 µM) | relative viability (Carboplatin + Trametinib; first compound 8 µM)
1 | NCI-H2023 | 0.986 | 0.739 | 0.207 | 0.0741 | 0.0639 | 1.1 | 1.08 | 0.959 | 0.572 | 0.249 | 1.13 | 1.04 | 1.02 | 1.22 | 1.09 | 0.599 | 0.633 | 0.542 | 0.343 | 0.163
2 | HCC-78 | 0.968 | 0.771 | 0.849 | 0.323 | 0.265 | 1.09 | 0.982 | 1.02 | 0.927 | 0.905 | 0.984 | 1.06 | 1 | 0.976 | 0.904 | 0.828 | 0.587 | 0.653 | 0.674 | 0.73
3 | NCI-H522 | 0.87 | 0.777 | 0.515 | 0.397 | 0.426 | 1.12 | 0.963 | 0.922 | 0.873 | 0.881 | 1.1 | 0.929 | 1.01 | 0.977 | 0.989 | 0.724 | 0.876 | 0.632 | 0.781 | 0.762
4 | ChaGo-K-1 | 0.858 | 0.833 | 0.503 | 0.238 | 0.23 | 0.989 | 0.959 | 0.93 | 0.818 | 0.614 | 1.01 | 1.03 | 0.973 | 1.05 | 1.02 | 0.857 | 0.917 | 0.831 | 0.717 | 0.546
5 | EPLC-272H | 0.873 | 0.637 | 0.0627 | 0.119 | 0.173 | 1.2 | 1.11 | 1.07 | 0.924 | 0.919 | 1.1 | 1.01 | 0.936 | 1.08 | 1.04 | 0.302 | 0.317 | 0.334 | 0.273 | 0.303
6 | LCLC-97TM1 | 0.929 | 0.657 | 0.31 | 0.073 | 0.0774 | 1.13 | 0.978 | 1.09 | 1.03 | 0.837 | 0.999 | 0.965 | 0.91 | 1.02 | 1.11 | 0.236 | 0.216 | 0.212 | 0.228 | 0.26
7 | LK-2 | 0.971 | 0.787 | 0.618 | 0.245 | 0.239 | 1.11 | 0.943 | 0.947 | 0.937 | 1.06 | 1.01 | 0.988 | 0.985 | 1.08 | 0.994 | 0.772 | 0.973 | 0.624 | 0.58 | 0.846
